We go through 9 molecules from ChEMBL document CHEMBL5365468, “Discovery of a novel series of medium-sized cyclic enteropeptidase inhibitors” (Bioorg Med Chem, 2023).

SMILES strings stand for the structures.

Data set [1] addresses T1, Enteropeptidase (Homo sapiens, UniProt P98073). Description: Inhibition of human recombinant enteropeptidase using 5FAM-Abu-Gly-Asp-Asp-Asp-Lys-Ile-Val-Gly-Gly-Lys(CPQ2)-Lys-Lys-NH2 as substrate incubated for 6 mins by fluorescence plate reader analysis.
In data set [2] the target is T1, Enteropeptidase. Nature of the data set: Inhibition of human recombinant enteropeptidase using 5FAM-Abu-Gly-Asp-Asp-Asp-Lys-Ile-Val-Gly-Gly-Lys(CPQ2)-Lys-Lys-NH2 as substrate incubated for 120 mins by fluorescence plate reader analysis.
Data set [3] is described as follows: In vivo inhibition of enteropeptidase in D12079B diet-induced obese C57BL/6J mouse model assessed as fold increase in fecal protein output at 10 mg/kg, po measured overnight relative to N-({4-[(4-carbamimidamidobenzoyl)oxy]phenyl}acetyl)-L-aspartic acid hydrochloride. The class given is functional.
Data set [4] concerns the target T1, Enteropeptidase. Nature of the data set: Inhibition of human recombinant enteropeptidase using 5FAM-Abu-Gly-Asp-Asp-Asp-Lys-Ile-Val-Gly-Gly-Lys(CPQ2)-Lys-Lys-NH2 as substrate assessed as dissociation half life preincubated with compound for 2 hrs followed by substrate addition and measured every 2 mins by fluorescence based analysis.
A short description of data set [5]: Inhibition of rat recombinant enteropeptidase catalytic domain (818 to 1057 residues) using 5FAM-Abu-Gly-Asp-Asp-Asp-Lys-Ile-Val-Gly-Gly-Lys(CPQ2)-Lys-Lys-NH2 as substrate incubated for 120 mins by fluorescence plate reader analysis.
A short description of data set [6]: Oral bioavailability in dog assessed as ratio of dose normalized oral AUC to intravenous AUC at 1 mg/kg by LC-MS/MS analysis. The class given is ADME, organism-based, Canis lupus familiaris. Particulars: in vivo.
Data set [7] in a line: Oral bioavailability in mouse assessed as ratio of dose normalized oral AUC to intravenous AUC at 10 mg/kg by LC-MS/MS analysis. The class given is ADME, organism-based. Particulars: in vivo.
The nature of data set [8]: Oral bioavailability in rat assessed as ratio of dose normalized oral AUC to intravenous AUC at 10 mg/kg by LC-MS/MS analysis. Particulars: in vivo. It is filed as ADME, organism-based.
Data set [9] can be described thus: Oral bioavailability in monkey assessed as ratio of dose normalized oral AUC to intravenous AUC at 1 mg/kg by LC-MS/MS analysis. It is filed as ADME, organism-based, Macaca mulatta. Particulars: rhesus monkey, in vivo.
A short description of data set [10]: Drug absorption in mouse intestine assessed as fraction of drug absorbed into portal vein at 10 mg/kg, po by LC-MS/MS analysis. The class given is ADME, organism-based. Particulars: in vivo.
Data set [11] can be described thus: Drug absorption in rat intestine assessed as fraction of drug absorbed into portal vein at 10 mg/kg, po by LC-MS/MS analysis. It is filed as ADME, organism-based. Particulars: in vivo.
A short description of data set [12]: Drug absorption in dog intestine assessed as fraction of drug absorbed into portal vein at 1 mg/kg, po by LC-MS/MS analysis. It is filed as ADME, organism-based, Canis lupus familiaris. Particulars: in vivo.
Data set [13] in a line: Drug absorption in monkey intestine assessed as fraction of drug absorbed into portal vein at 1 mg/kg, po by LC-MS/MS analysis. Particulars: rhesus monkey, in vivo. The class given is ADME, organism-based, Macaca mulatta.
A short description of data set [14]: Drug metabolism in Sprague-Dawley rat assessed as open-ring type hydrolyzed metabolite formation in plasma at 100 mg/kg, po by LC-MS/MS analysis. The class given is ADME, organism-based. Particulars: in vivo.
A short description of data set [15]: Stability of the compound at pH 1.2 assessed as drug decomposition at 10 ug/ml incubated for 24 hrs by HPLC analysis. It is filed as physicochemical. Particulars: buffer, at 10 µg/mL, read-out: Drug degradation.
Data set [16] in a line: Stability of the compound at pH 6.8 assessed as drug decomposition at 10 ug/ml incubated for 24 hrs by HPLC analysis. It is filed as physicochemical. Particulars: buffer, at 10 µg/mL, read-out: Drug degradation.

T1 sequence (P98073 2-784 limits assumed): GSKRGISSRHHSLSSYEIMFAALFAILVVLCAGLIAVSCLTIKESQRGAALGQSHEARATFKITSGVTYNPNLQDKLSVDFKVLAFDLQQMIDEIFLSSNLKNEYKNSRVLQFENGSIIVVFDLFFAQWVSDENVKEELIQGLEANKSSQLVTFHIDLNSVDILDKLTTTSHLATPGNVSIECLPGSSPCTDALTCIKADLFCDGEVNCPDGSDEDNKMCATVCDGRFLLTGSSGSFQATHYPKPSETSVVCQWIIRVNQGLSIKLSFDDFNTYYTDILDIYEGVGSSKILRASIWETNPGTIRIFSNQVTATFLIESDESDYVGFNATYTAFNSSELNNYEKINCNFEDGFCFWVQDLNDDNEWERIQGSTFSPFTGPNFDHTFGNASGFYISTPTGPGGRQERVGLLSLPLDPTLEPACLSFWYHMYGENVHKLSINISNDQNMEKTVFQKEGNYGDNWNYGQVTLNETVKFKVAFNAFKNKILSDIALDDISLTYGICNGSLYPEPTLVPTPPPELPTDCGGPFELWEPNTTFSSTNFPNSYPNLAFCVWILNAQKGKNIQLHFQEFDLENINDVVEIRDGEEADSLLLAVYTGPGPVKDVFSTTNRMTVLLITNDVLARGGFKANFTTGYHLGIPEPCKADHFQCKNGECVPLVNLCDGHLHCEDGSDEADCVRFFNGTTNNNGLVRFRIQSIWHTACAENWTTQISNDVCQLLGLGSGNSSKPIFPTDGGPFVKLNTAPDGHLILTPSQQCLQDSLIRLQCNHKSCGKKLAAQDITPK
T1 sequence (P98073 785-1019 limits assumed): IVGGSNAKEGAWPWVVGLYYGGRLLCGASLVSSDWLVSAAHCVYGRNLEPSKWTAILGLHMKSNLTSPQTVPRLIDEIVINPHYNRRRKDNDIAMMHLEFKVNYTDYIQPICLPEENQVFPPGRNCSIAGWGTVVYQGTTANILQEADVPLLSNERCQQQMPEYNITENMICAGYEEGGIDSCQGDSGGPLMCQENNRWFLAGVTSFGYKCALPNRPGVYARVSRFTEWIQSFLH

`N=C(N)Nc1ccc2c(c1)CCCOc1c(cccc1C(=O)N[C@@H](CC(=O)O)C(=O)O)OC2=O`: the 50% inhibitory concentration (IC50) (as a rule, the point on the concentration scale where inhibition reaches its midpoint) on Enteropeptidase [1] stood at 9.4 nM; at Enteropeptidase [2], 0.41 nM; in [5], 0.62 nM. Further, the “fold change (FC)” value in [3] is listed as 1.72. Further, the T1/2 on Enteropeptidase [4] is above 2 h. Moreover, the bioavailability (in general, dose-corrected exposure relative to a reference, in per cent) is 2.8% in data set [6], 1.1% in data set [7], 1% in [8] and 0.3% in data set [9]. In addition, the FaFg in data set [10] was found to be 1.9%; in [11], 1.2%; in [12], 3.4%; in data set [13], 0.3%. The Drug metabolism result in data set [14] is on record as “Metabolite_Detected”.

For `N=C(N)Nc1ccc2c(c1)CCCCCCc1c(cccc1C(=O)N[C@@H](CC(=O)O)C(=O)O)OC2=O`, the IC50 on Enteropeptidase [1] was 2500 nM; at Enteropeptidase [2], 81 nM.

`N=C(N)Nc1ccc2c(c1)CCCCc1c(cccc1C(=O)N[C@@H](CC(=O)O)C(=O)O)OC2=O`: the IC50 at Enteropeptidase [1] came to 93 nM; at Enteropeptidase [2] it was 3.2 nM. In addition, the “fold change (FC)” value in data set [3] was 1.13. The values for the degraded at 24 h, 10 ug/ml in data set [15] and in [16] were 1.2% and 3.4%, respectively. Further, at Enteropeptidase [4], the T1/2 was above 2 h.

Regarding `Cc1ccc(C(=O)N[C@@H](CC(=O)O)C(=O)O)cc1OC(=O)c1ccc(NC(=N)N)cc1`, the results for the IC50 at Enteropeptidase [1] and on Enteropeptidase [2] were above 3300 nM and 710 nM, respectively.

Take `N=C(N)Nc1ccc2c(c1)CCCCCc1c(cccc1C(=O)N[C@@H](CC(=O)O)C(=O)O)OC2=O`: the concentration for half-maximal inhibition (IC50) was determined as 96 nM at Enteropeptidase [1] and 2.9 nM at Enteropeptidase [2]. The “fold change (FC)” value in [3] is given as 1.15. The degraded at 24 h, 10 ug/ml is 0.4% in data set [15] and 0.6% in data set [16]. Also, the T1/2 on Enteropeptidase [4] is above 2 h.

With `N=C(N)Nc1ccc2c(c1)OCCCc1c(cccc1C(=O)N[C@@H](CC(=O)O)C(=O)O)OC2=O`, the values for the 50% inhibitory concentration (IC50) at Enteropeptidase [1] and on Enteropeptidase [2] were 8.7 nM and 0.69 nM, respectively. For the same molecule, on Enteropeptidase [4], the T1/2 came to 0.27 h.

As for `Cc1c(OC(=O)c2ccc(NC(=N)N)cc2)cccc1C(=O)N[C@@H](CC(=O)O)C(=O)O`, the half-inhibitory concentration (IC50) on Enteropeptidase [1] was determined as 69 nM; on Enteropeptidase [2], 4.4 nM.

On to `N=C(N)Nc1ccc2c(c1)CCCCOc1c(cccc1C(=O)N[C@@H](CC(=O)O)C(=O)O)OC2=O`, for which the IC50 at Enteropeptidase [1] stood at 26 nM; on Enteropeptidase [2], 1.7 nM. For the same molecule, the T1/2 on Enteropeptidase [4] was above 2 h.

As to `N=C(N)Nc1ccc2c(c1)CCCc1c(cccc1C(=O)N[C@@H](CC(=O)O)C(=O)O)OC2=O`, the IC50 worked out at 430 nM at Enteropeptidase [1] and 22 nM on Enteropeptidase [2].
